Measurements from publication PMC12555108, “In‐vitro Assessment of BCRP‐Mediated Efflux of Antiseizure Medications in Human Blood‐Brain Barrier Cell Model” (Journal of Biochemical and Molecular Toxicology, 2025).
Each block holds one molecule with its values, some of them ahead of it.

Tests used:
[1] = target: T1, BCRP (Homo sapiens, UniProt Q9UNQ0); assay: bidirectional transport assay across hCMEC/D3 cell monolayer with or without Ko143; conditions: for transport by BCRP (conclusion of bidirectional transport assay): ER ≥ 1.5 and significantly reduced by Ko143
T1 sequence (Q9UNQ0 1-655): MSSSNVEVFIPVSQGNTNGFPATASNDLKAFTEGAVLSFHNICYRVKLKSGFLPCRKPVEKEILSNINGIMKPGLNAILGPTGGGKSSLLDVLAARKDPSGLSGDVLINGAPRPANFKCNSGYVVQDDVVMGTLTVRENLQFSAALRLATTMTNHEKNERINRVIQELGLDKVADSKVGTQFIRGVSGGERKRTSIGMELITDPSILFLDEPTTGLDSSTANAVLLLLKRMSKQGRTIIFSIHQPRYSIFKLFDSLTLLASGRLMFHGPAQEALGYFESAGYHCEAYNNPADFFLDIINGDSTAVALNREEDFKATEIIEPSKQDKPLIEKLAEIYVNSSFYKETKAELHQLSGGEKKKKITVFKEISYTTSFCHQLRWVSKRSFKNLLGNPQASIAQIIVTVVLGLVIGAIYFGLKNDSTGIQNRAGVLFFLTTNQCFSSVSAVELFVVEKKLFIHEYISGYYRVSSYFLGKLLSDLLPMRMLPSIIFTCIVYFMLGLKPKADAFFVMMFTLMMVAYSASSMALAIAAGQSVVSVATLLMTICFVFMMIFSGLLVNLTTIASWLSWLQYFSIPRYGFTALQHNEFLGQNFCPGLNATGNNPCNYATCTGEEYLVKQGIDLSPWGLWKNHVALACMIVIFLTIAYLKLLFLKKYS
Experimental: For transport assays, hCMEC/D3 cells were seeded on collagen type I‐coated Transwell inserts (polycarbonate 12‐well, pore size […]) (cat. no. CLS3460; Corning, NY, USA) at 80% confluency and cultured as described in section 2.5. In brief, the drug was dissolved in Hanks’ balanced salt solution supplemented with 10 mM HEPES, 1 mM Na‐Pyruvate, pH 7.4 at 37°C (transport buffer). Initially, both sides of the chamber were washed with 1X PBS and the assay was performed with pre‐warmed transport buffer. 0.5 ml or 1.5 ml of the drug solution, with or without BCRP‐specific inhibitor Ko143 (1 μM) was added to either the apical side or basolateral side of the monolayer, respectively, and fresh transport buffer was added to the opposite side. Aliquots of 100 μl samples were taken from the opposite sides every 30 min for 2 h, and the same amount of fresh transport buffer was added to the same chamber after each sampling. […] Concentrations of ASMs were evaluated by HPLC or LC/MS. Apparent permeability (Papp) is defined as the transport rate of ASM and efflux ratio (ER) was calculated as the ratio of Papp in the basolateral‐to‐apical (Papp(B→A)) direction to the Papp in the apical‐to‐basolateral (Papp(A→B)) direction. The samples were stored at −20°C until analysis. […] Fluorescence detection of lucifer yellow (excitation at 430 nm, and emission at 535 nm) was carried out with Infinite 200 PRO NanoQuant (Tecan, Zurich, Switzerland). […] All transport assays were performed in triplicate.
The calculation for apparent permeability coefficient, Papp, was performed as described before. Papp=dQr/dt/A×C0 where dQr/dt is the cumulative amount in the receiver side vs time in μM/s
A is the area of the cell monolayer
C0 is the initial concentration of the dosing solution (μM).
And, Efflux ratio=Papp(B−to−A)/Papp(A−to−B)

[2] = target: T1, BCRP; assay: vanadate-sensitive BCRP ATPase assay (membrane vesicles from MCF-7 cells overexpressing BCRP); type: biochemical; parameters: host or cells: MCF-7 cells overexpressing BCRP; conditions: 40 µM
Experimental: To assess the interaction between ASMs and BCRP, a vanadate‐sensitive ATPase assay was performed as per the manufacturer's instructions manual. […] After 10 min, 1x developer solution was added and kept for 2 min. To stop the reaction, 100 µL blocker solution was added and incubated for 30 min. at 37°C. The optical densities were measured at 620 nm using an Infinite 200 PRO NanoQuant (Tecan, Zurich, Switzerland) plate reader. 1 μM Ko143 was used as a positive control for BCRP inhibition. Ko143 was used at a concentration that is known to inhibit BCRP efficiently. The results were expressed as vanadate‐sensitive ATPase activity that is based on the difference in inorganic phosphate released between samples with and without vanadate. This will evaluate the ability of the test ASM to stimulate BCRP's baseline ATPase activity.

[3] = target: T1, BCRP; assay: competitive substrate efflux assay (BODIPY-prazosin accumulation) in hCMEC/D3 cells; type: cell-based
Experimental: The potential of ASMs to compete with a known fluorescent substrate of BCRP, BPZ in hCMEC/D3 cells was examined using a competitive substrate efflux assay that has previously been used in various studies. The interaction of CBZ, DCLB, OXC, TPM, and LEVI with BCRP was evaluated. Initially, hCMEC/D3 were seeded in 12‐well plates (cat. no. 150628, Nunc, Thermo Fisher Scientific, MA, USA) at 70‐80% confluency for 24 h. In this study, Ko143 was used for BCRP inhibition. The cultured cells were incubated at 37°C for half an hour in media containing BPZ with either the test ASMs or Ko143. Cells were washed with chilled 1X PBS three times and again incubated at 37°C for 1 h 30 min in BPZ‐free media with or without Ko143. Cells were washed three times with ice‐cold 1X PBS to terminate the assay. Cell lysis was performed by adding 1% triton X‐100, followed by incubating the cells for 15 min at 37°C. 20 µl of cell lysate was placed in 384‐well black assay plates for fluorescence detection (excitation at 488 nm; emission at 530 nm) to Infinite 200 PRO NanoQuant (Tecan, Zurich, Switzerland). The rest of the cell lysate was used for determining protein levels using the BCA protein estimation method to normalize the observed fluorescence intensity with total protein yield. The data were shown as a fold increment in intracellular fluorescence of BPZ relative to the control.

[4] = target: T1, BCRP; parameters: host or cells: MCF-7 cells overexpressing BCRP; conditions: previous study; cited from earlier work
[5] = parameters: method as in Johannessen, 2004; Patsalos, 2008; Lee, 2016; conditions: patients with epilepsy; ref Johannessen, 2004; Patsalos, 2008; Lee, 2016; cited from earlier work

SMILES: O=C1c2c(O)ccc(O)c2C(=O)c2c(NCCNCCO)ccc(NCCNCCO)c21 [MXR, mitoxantrone]
- Papp A→B at 2 h, 5 μM ([1]; human, pH 7.4): 5.1 ×10⁻⁶ cm/s
- Papp B→A at 2 h, 5 μM ([1]; human, pH 7.4): 12.7 ×10⁻⁶ cm/s
- Papp A→B at 2 h, 5 μM ([1]; human, pH 7.4, with Ko143 1 μM): 10.2 ×10⁻⁶ cm/s
- Papp B→A at 2 h, 5 μM ([1]; human, pH 7.4, with Ko143 1 μM): 10.6 ×10⁻⁶ cm/s

- transport by BCRP (conclusion of bidirectional transport assay) ([1]; hCMEC/D3 monolayer): transports
- Papp A→B at 2 h, 25 µM ([1]; human, pH 7.4): 2.64 ×10⁻⁶ cm/s
- Papp A→B at 2 h, […] µM ([1]; human, pH 7.4): 16.5 ×10⁻⁶ cm/s
- Papp B→A at 2 h, 25 µM ([1]; human, pH 7.4): 4.72 ×10⁻⁶ cm/s
- Papp B→A at 2 h, […] µM ([1]; human, pH 7.4): 39.4 ×10⁻⁶ cm/s
- Papp A→B at 2 h, 25 µM ([1]; human, pH 7.4, with Ko143 1 μM): 3.21 ×10⁻⁶ cm/s
- Papp A→B at 2 h, […] µM ([1]; human, pH 7.4, with Ko143 1 μM): 140 ×10⁻⁶ cm/s
- Papp B→A at 2 h, 25 µM ([1]; human, pH 7.4, with Ko143 1 μM): 3.59 ×10⁻⁶ cm/s
- Papp B→A at 2 h, […] µM ([1]; human, pH 7.4, with Ko143 1 μM): 169 ×10⁻⁶ cm/s
- stimulation of BCRP ATPase activity (activation assay) [2]: significantly stimulated
- BPZ accumulation in hCMEC/D3 cells ([3]; […] and […] µM): significantly increased
SMILES: NC(=O)N1c2ccccc2CC(=O)c2ccccc21 [OXC, oxcarbazepine]

- transport by BCRP (conclusion of bidirectional transport assay) ([1]; hCMEC/D3 monolayer): not
- Papp A→B at 2 h, 15 µM ([1]; human, pH 7.4): 0.71 ×10⁻⁶ cm/s
- Papp A→B at 2 h, 60 µM ([1]; human, pH 7.4): 20 ×10⁻⁶ cm/s
- Papp B→A at 2 h, 15 µM ([1]; human, pH 7.4): 0.71 ×10⁻⁶ cm/s
- Papp B→A at 2 h, 60 µM ([1]; human, pH 7.4): 25.5 ×10⁻⁶ cm/s
- efflux ratio at 2 h ([1]; human, pH 7.4, Efflux ratio (ER) without inhibitor, at all the tested concentrations, hCMEC/D3 monolayer): < 1.5
- efflux ratio at 2 h, 15 µM ([1]; human, pH 7.4, Efflux ratio (ER), hCMEC/D3 without inhibitor Ko143, 15 μM, hCMEC/D3 monolayer): 1.06
- efflux ratio at 2 h, 60 µM ([1]; human, pH 7.4, Efflux ratio (ER), hCMEC/D3 without inhibitor Ko143, 60 μM, hCMEC/D3 monolayer): 1.17
- Papp A→B at 2 h, 15 µM ([1]; human, pH 7.4, with Ko143 1 μM): 12.3 ×10⁻⁶ cm/s
- Papp A→B at 2 h, 60 µM ([1]; human, pH 7.4, with Ko143 1 μM): 159 ×10⁻⁶ cm/s
- Papp B→A at 2 h, 15 µM ([1]; human, pH 7.4, with Ko143 1 μM): 14.2 ×10⁻⁶ cm/s
- Papp B→A at 2 h, 60 µM ([1]; human, pH 7.4, with Ko143 1 μM): 190 ×10⁻⁶ cm/s
- efflux ratio at 2 h, 15 µM ([1]; human, pH 7.4, with Ko143 1 µM, Efflux ratio (ER), hCMEC/D3 with inhibitor Ko143, 15 μM, hCMEC/D3 monolayer, 1 μM Ko143): 1.16
- efflux ratio at 2 h, 60 µM ([1]; human, pH 7.4, with Ko143 1 µM, Efflux ratio (ER), hCMEC/D3 with inhibitor Ko143, 60 μM, hCMEC/D3 monolayer, 1 μM Ko143): 1.13
- intracellular accumulation of BPZ in hCMEC/D3 cells [3]: did not affect
SMILES: CC1(C)O[C@@H]2[C@@H](CO[C@@]3(COS(N)(=O)=O)OC(C)(C)O[C@@H]23)O1 [TPM, topiramate]
- stimulation of BCRP ATPase activity [4]: no significant stimulation
- Therapeutic plasma concentration range [5]: 15 to 60 µM
